Entries after “also recorded” stand apart in the source; their conditions may differ.
Experiment: Solubility of DEX in oils (shake flask)
Assay type: physicochemical
Conditions: Labrafil M1944 CS versus medium-chain triglycerides, soybean oil, olive oil; 37 °C, 72 h
Experimental: The solubility of drug in oils is the basis for the selection of the oil phase. The solubility of DEX in various oils, including medium-chain triglycerides, soybean oil, olive oil, and Labrafil® M1944 CS was determined by the shake flask method. Briefly, an excessive amount of DEX was added to 1mL of oil in an Eppendorf tube and mixed in a water bath sonication. Then the tubes were placed in a water bath shaker at 37 ± 0.5 °C. After shaking for 72 h, the samples were centrifuged at 10,000 rpm for 10 min. The supernatant was extracted with ethanol solution by sonicating for 20 min and centrifuging at 10,000 rpm for 10 min. The DEX concentration in the supernatant was determined by high-performance liquid chromatography. […] Next, the effect of the amount of Labrafil® M1944 CS content on the physicochemical properties of the DEX NEs was screened (Table S1). When the amount of Labrifil® M 1944 CS was 50 mg, DEX NEs had higher drug content (0.64±0.003mg/mL) and EE (91.3±2.8%), and this formulation was selected to further prepare DEX SC-NEs.

solubility in oil: high solubility; also recorded: highest
Compound: C[C@@H]1C[C@H]2[C@@H]3CCC4=CC(=O)C=C[C@]4(C)[C@@]3(F)[C@@H](O)C[C@]2(C)[C@@]1(O)C(=O)CO [DEX, Dexamethasone]

From PMC10964573, “OCTN2- and ATB^0,+-targeted nanoemulsions for improving ocular drug delivery” (Journal of Nanobiotechnology, 2024)
